The text below walks through data of patent publication US20160009769A1, “PROCESSES FOR ISOLATING SALICYCLIC ACID RECEPTORS” (NEOPRO LABS, LLC, priority 2013, published 2016).

In assay [1] the test system is SARP. In words: Dynamic light scattering (DLS) of SARP micelles/gel in water. The assay is classed as biochemical, Sauromatum. The conditions noted are these: for micelle size after 20 min: 20 min after addition to 0.1 pM SARP in water; for micelle size upon addition: added to 0.1 pM SARP in water. The protocol: Organized droplets are seen under the light microscope when SARP solution is spread on a glass slide. Upon addition of DTT or mercaptoethanol the micelle size reduces to ˜300 nm, and after 20 min, the size increases back to ˜800 nm. […] The swelling and shrinking were discontinuous. Addition of 10 μM ATP stops the oscillation for ˜30 min. and then it is resumed at the same kinetics.
FIG. 11. SARP was purified from D-day appendices using RP-HPLC-ESI-MS. Purified SARP was solubilized in distilled water and analyzed using DLS. […] T, period.
Upon addition of water to the dry protein at a final concentration of 0.1 pM, micelles formed with a uniform size of ˜800 nm (FIG. 5). Upon addition of DTT or β-mercaptoethanol the micelle size reduced to ˜300 nm, and after 20 min, the size increased back to ˜800 nm. […] Addition of 10 μM ATP stopped the oscillation for ˜30 min. and then it resumed with the same kinetics.

The test system of assay [2] is SARP. In words: Reduction of tetrazolium salts by SARP in the presence of pyridine. The conditions noted are these: tetrazolium salt 4 μM, pyridine 30%, 5 min at room temperature; mean of two determinations. The class given is biochemical. The text has this: Additionally and as described herein, SARPs are capable of unidirectionally transferring one or two electrons to an electron acceptor such as 3-(4,5-dimethyl thiazol-2-yl-(2,5-diphenyl) tetrazolium bromide (MTT), nitro blue tetrazolium (NBT) or neotetrazolium chloride (Neo-NBT), or to ferricytochrome c.

In the next assay the test system is Sauromatum appendix. The conditions noted are these: cited from earlier work; for triggering of heat production: S. guttatum.
Assay [3] concerns SARP. In words: ESI-MS charge state distribution (conformation) of SARP from Sauromatum appendix after treatment with salicylates. Also noted: species or system Sauromatum guttatum. The text has this: It is an aspect of the present invention to provide a method of detection and characterization of SARP using RP-HPLC/ESI-MS. This is accomplished using on-line splitting of 5 to 10% of the effluent from the UV detector to a Micromass Quattro II tandem quadrupole MS fitted with an ESI source (Waters Inc.) via a variable splitter allowing manual fraction collection. This instrument is operated in a positive ESI mode at a probe tip voltage of 3.6 kV and a cone voltage of 45 V. The source and nebulizer temperatures are maintained at 150 and 400° C., respectively, using N2 as both nebulizing and bath gas. The instrument is calibrated using water clusters over the range of 100-2400 Da with data acquisition is carried out from m/z 500 to 2000 in the continuum-scanning mode at 450 Da sec^1. Instrument tuning, mass calibration, data acquisition, processing and display are accomplished using MassLynx™ and MaxEnt™ software (Waters Inc.). This procedure provided a protein molecular mass with an accuracy of ˜0.1%.
FIG. 13. […] The ESI-MS spectra is different that that of ASA and SA. It is more expanded, lower m/z values.
Monomeric SARP undergoes a large-scale conformation transition from one state to another in the Sauromatum appendix during development. […] The concentration of SA in the appendix tissue is ˜1 μg/g fresh wt^4, and it is equivalent to ˜7 μM, within the range of this experiment.

In assay [4] the test system is SARP. Briefly: UV spectra of SARP in the presence of ligands. The class given is biochemical. The following applies: 1 pM SARP. Here is the method:
FIG. 14. UV spectra of SAR in the presence of 2,6-DHBA. Freshly dissolved SAR was incubated with 2,6-DHBA and samples were taken for spectral analysis at the same time when the effect of SA on SAR was determined. The data present acquired spectra after baseline subtraction of each compound added to SAR. Every 3 min. after the addition of SAR a spectrum was recorded. A, The first 6 spectra were downward relative to the baseline (solid line). The following spectra were upward (broken line). (ME, β-mercaptoethanol).
FIG. 15. UV spectra of SAR in the presence of GTP, SA, and ATP. Freshly dissolved SARP was incubated with GTP and samples were taken for spectral analysis. Later, ME and SA were added to the sample, and finally ATP was added to the sample. The data present acquired spectra after baseline subtraction of each compound added to SARP. […] (ME, β-mercaptoethanol).
Thus, according to certain related embodiments, UV absorbance spectra of SARP may fluctuate over time when absorbance measurements are collected over a range of wavelengths and at a plurality of time points, if a salicylate-related compound is present or, under other chemical environments as described below. […] In certain preferred embodiments the change may be detected at wavelengths from (inclusively) 190 nm to 280 nm, where it will be appreciated that selection of a suitable wavelength may vary as a function of several factors including protein concentration, solution composition (e.g., absorbance properties of buffers, salts, etc.), instrument sensitivity, and other related attributes of a spectroscopic configuration.

For assay [5], the system named is SARP. Briefly: Effect of SA on the levels of SARP in the Sauromatum appendix. Also noted: species or system Sauromatum guttatum. The following applies: D-1 appendix placed in 10 μM SA, protein extracted next morning; control in water 160. Here is the method:
In certain embodiments SARP is isolated using organic solutions. Tissues are ground n a juicer grinder in an organic extraction solution containing 50% IP, 2 mM β-mercaptoethanol, 0.5 mM EDTA, 5 mM butylated hydroxy-toluene, 0.1% tocopherol acetate, 0.1% polyvinylpoly-pyrrolidone (insoluble, Sigma-Aldrich Corp.) in 40 mM imidazole/HCl buffer, pH 7.0, at a weight/volume ratio of 1 g of tissue per 5 ml of extraction solution. The extract is centrifuged at 15,000 g for 10 min and the pellet is discarded. A strong cationic resin (DOWEX X-50, Sigma-Aldrich Corp.) is added to the supernatant (30 mg resin per ml) and stirred for 2.5 h at 4° C. The mixture is then centrifuged at 30 g for 2 min, and the supernatant is discard. The Dowex resin is washed several times, first with the extraction solution and finally with distilled water until a clear wash is obtained. Subsequently, the resin is again washed 2 times with 0.15 M phosphate buffer, pH 7.0. […] The protein solution is dialyzed using a 12-14 kDa cut-off dialysis bag against 3 L of distilled water at 4° C., the water is changed twice during 24 h. The content of the dialysis bag is removed and centrifuged at 10,000 g for 15 min. The pellet is used for SARP purification.
In certain embodiments SARP is purified using a reversed-phase high-performance liquid chromatography (RP-HPLC) on-line to elecrosray ionization-mass spectromer (ESI-MS). […]

A further assay relates to Human SARP. In words: ESI-MS conformation of SARP purified from SK-N-SH cells treated with SA. The class given is cell-based. The conditions noted are these: SK-N-SH cells treated with 10 μM. The text has this: The charge state distribution (CSD) of the human SARP is identical to its plant counterpart from the Sauromatum appendix during heat-production. […] This regulatory activity behaves as a metabolic switch that switching on and off heat-production. SARP can be a metabolic switch in the cytoplasm and mitochondria. […] However, if SA level fluctuates, SARP can be either in state B (compact) or state A (extanded) and consequently, can trigger oscillatory thermogenicity. In a more complex model, the cytoplasmic and the mitochondrial switch will have to be to be in state B. There are four possibilities for the output for both switches. When both switches are in states B, a singular event of heat-production occurs. Other options are cytoplasmic SARP in state A and mitochondrial SARP in either state A or B. Or, cytoplasmic SARP in state B and mitochondrial SARP in state A.
FIG. 16. Purification of SARP from SK-N-SH cells using perfusion chromatography. SARP was purified using RP-HPLC/ESI-MS. TIC chromatogram with solvent gradient overlay (A). Ion current chromatograms of m/z 1139 (B) and 1178, (C) corresponding to [M+30H]^30+ and […] charge states of the protein. Solvent A is 0.05% TFA in aqueous solution and solvent B is 0.05% aqueous TFA in ACN:IP at a ratio 2:1.
FIG. 17. Electrospray ionization mass spectrua of SARP from the SK-N-SH cells and Sauromatum appendix. […]

[6] abbreviates: higher concentrations, 100 and 200 μM.

For the compound `Nc1ncnc2c1ncn2[C@@H]1O[C@H](COP(=O)(O)OP(=O)(O)OP(=O)(O)O)[C@@H](O)[C@H]1O` [ATP], the “time the oscillation is stopped” value with SARP [1] (10 μM added to oscillating SARP gel) is around 30 min.

As to `COc1cc(-c2ccc(-n3nc(-c4ccccc4)n[n+]3-c3ccc([N+](=O)[O-])cc3)c(OC)c2)ccc1-n1nc(-c2ccccc2)n[n+]1-c1ccc([N+](=O)[O-])cc1` [NBT, nitro blue tetrazolium], in the assay with SARP [2], the O.D.530 was 0.14.

On to `Cc1nc(-[n+]2nc(-c3ccccc3)nn2-c2ccccc2)sc1C.[Br-]` [MTT], for which the O.D.530 in the assay on SARP [2] is 0.17.

Turning to `CC(=O)Oc1ccccc1C(=O)O` [ASA, aspirin], the “triggering of heat production” value in the assay on Sauromatum appendix was “can also trigger heat production”.

On to `c1ccc(-c2nn(-c3ccccc3)[n+](-c3ccc(-c4ccc(-[n+]5nc(-c6ccccc6)nn5-c5ccccc5)cc4)cc3)n2)cc1` [NeoT, neotetrazolium chloride], for which the O.D.530 in the assay with SARP [2] is recorded as 0.06.

For `OCCS` [β-mercaptoethanol], in the assay with SARP [1], the “micelle size after 20 min” value was around 800 nm and the “micelle size upon addition” value is given as around 300 nm.

On to `O[C@H](CS)[C@H](O)CS` (racemic) [DTT, dithiothreitol], for which, in the assay on SARP [1], the “micelle size after 20 min” value is around 800 nm and the “micelle size upon addition” value is reported as around 300 nm.

In the case of `O=C(O)c1c(O)cccc1O` [2,6-DHBA, 2,6-dihydroxybenzoic acid], in the assay on Sauromatum appendix, the “triggering of heat production” value is “can also trigger heat production”. Further, the “ESI-MS spectra of SARP compared with ASA and SA” value in the assay on SARP [3] (D-2 and D-3 appendix sections incubated overnight in 100 μM) was “more expanded”. For the same compound, the “conformational state of SARP” value in the assay on SARP [3] (setting [6]) is “conformations that are more extended than state A”. The “effect on UV spectrum of SARP” value with SARP [4] (incubation with NADH) is reported as “did not exert the same effect”.

`O=C(O)c1ccccc1O` [SA, salicylic acid]: the “temperature rise of appendix section” value in the assay with Sauromatum appendix (added on D-1 morning, the next morning, untreated section stays at ambient temperature) is “up to 32 °C”. Moreover, the “conformational state of SARP” value in the assay with SARP [3] (10 μM applied to pre D-day appendices) is “induced a transition from state A in which SA undetectable in the tissue to state B”; in the assay on SARP [3] (setting [6]), “conformations that are more extended than state A”. Moreover, the “effect on UV spectrum of SARP” value in the assay on SARP [4] (incubation of SA and GTP and ATP) is listed as “appearance of new bands from 197 to 230”; in the assay with SARP [4] (incubation with NADH) it was “a shift in a band from 197 to 230”. Further, the “effect on micelle size” value with SARP [1] (1 pM, molar ratio [SARP]/[SA]<0.1) is “immediately decreased the micelle size”. Also, in the assay on SARP [1] (after addition of 1 pM SA), the “period of gel expansion/shrinking oscillation” value lay within 4 to 5 min. In the assay with SARP [5], the “SARP (ng/g fresh wt.)” value is listed as 30 ng/g fresh wt. For the same compound, the “conformation of human SARP” value in the assay with Human SARP is reported as “a shift to a much more compact conformation”.

Turning to `O=C(O)c1ccc(O)c(O)c1` [3,4-DHBA, 3,4-dihydroxybenzoic acid], in the assay on SARP [4] (incubation with NADH), the “effect on UV spectrum of SARP” value is on record as “did not exert the same effect”.
